Source: patent US20090227493A1, “COMBINED DRUG FOR TREATING DIABETES” (DAIICHI SANKYO COMPANY, LIMITED, priority 2005, published 2009)

Experiments:
[1] = tested on: diabetic obese rats (male ZDF rats); assay: Test Example 1: effect of combined use of GLP-1 (7-36) amide and compound A; assay type: in vivo, rat; settings: from start of treatment to 57 days; FIG. 1-C
Text: In this test, commercially available diabetic obese rats (male ZDF rats, 8 weeks old at the start of administration, purchased from Charles River Laboratories Japan, Inc.) were used. ZDF rats used in this test were acclimatized to the feeding time from 9:30 to 16:30 from one week before the start of treatment.
Rats were divided into four groups: the control group, compound A treatment group (group A), GLP-1 (7-36) amide treatment group (group B), and compound A plus GLP-1 (7-36) amide treatment group (group C).
The control group and group B were allowed free access to a powder feed (FR-2: Funabashi Farms Co., Ltd.) from 9:30 to 16:30. […] The dose of compound A was calculated as 16.1 μg/kg/day based on the food intake during this period. […]
Glycosylated hemoglobin (HbA1c) levels were measured at 42 days after the start of treatment, and blood sugar levels in full feeding were measured at 47 days. […]
Furthermore, insulin in the pancreas was extracted by the hydrochloric acid-ethanol method (Diabetelogia, Vol. 27, pp. 454-459 [1984]), and the insulin concentration in the extract was determined by using a rat insulin RIA kit manufactured by Linco Research, Inc. to obtain the pancreatic insulin content. […]
Blood was collected from the caudal vein of the rats, and blood sugar levels were measured with Glucoroder GXT (A & T Corporation). HbA1c levels were measured with DC2000 (Bayer Medical Ltd.).

[2] = tested on: diabetic obese rats (male ZDF rats); assay: Test Example 2: effect of combined use of various GLP-1 receptor agonists and compound A, same manner as Test Example 1; settings: combined use with compound A

Molecule | increases in body weight (weight gain) [1] | weight gain by compound A [2] | decrease in HbA1c levels [2] | pancreatic insulin content [2]
COc1ccc2nc(COc3ccc(CC4SC(=O)NC4=O)cc3)n(C)c2c1 (centres unmarked) [compound A, 5-[4-(6-Methoxy-1-methyl-1H-benzimidazol-2-ylmethoxy)benzyl]thiazolidine-2,4-dione] | weight gain | – | – | –
CCCCCCCCCCCCCCCC(=O)N[C@@H](CCC(=O)NCCCC[C@H](NC(=O)[C@H](C)NC(=O)[C@H](C)NC(=O)[C@H](CCC(N)=O)NC(=O)CNC(=O)[C@H](CCC(=O)O)NC(=O)[C@H](CC(C)C)NC(=O)[C@H](Cc1ccc(O)cc1)NC(=O)[C@H](CO)NC(=O)[C@H](CO)NC(=O)[C@@H](NC(=O)[C@H](CC(=O)O)NC(=O)[C@H](CO)NC(=O)[C@@H](NC(=O)[C@H](Cc1ccccc1)NC(=O)[C@@H](NC(=O)CNC(=O)[C@H](CCC(=O)O)NC(=O)[C@H](C)NC(=O)[C@@H](N)Cc1cnc[nH]1)[C@@H](C)O)[C@@H](C)O)C(C)C)C(=O)N[C@@H](CCC(=O)O)C(=O)N[C@@H](Cc1ccccc1)C(=O)N[C@H](C(=O)N[C@@H](C)C(=O)N[C@@H](Cc1c[nH]c2ccccc12)C(=O)N[C@@H](CC(C)C)C(=O)N[C@H](C(=O)N[C@@H](CCCNC(=N)N)C(=O)NCC(=O)N[C@@H](CCCNC(=N)N)C(=O)NCC(=O)O)C(C)C)[C@@H](C)CC)C(=O)O [Arg^34 Lys^26(N^6-(γ-L-glutamyl(N^α-palmitoyl))) GLP-1 (7-37)] | – | suppressing | – | –
exendin 3 | – | suppressing | synergistic effect | marked increase
